Reference: ChEMBL document CHEMBL5537157, “Selective Antitumor Effect and Lower Toxicity of Mitochondrion-Targeting Derivatization of Triptolide” (J Med Chem, 2024)
Calls of active or inactive are those of the source. The calls are words filed in the database; no cut-off is given here.

Key:
[1] = tested on: NCI-H1975; test: Induction of late apoptosis in human NCI-H1975 cells at 50 to 400 nM incubated for 24 hrs by Annexin V-FITC/PI staining based flow cytometry; format: functional, cell-based; conditions: dose 50-400 nM
[2] = tested on: NCI-H1975; test: Induction of ROS generation in human NCI-H1975 cells incubated for 24 hrs by DCFH-DA probe based analysis; format: functional, cell-based; conditions: dose 0.05-0.4 µM
[3] = species: Danio rerio; test: Induction of ROS production in zebrafish at 2 uM measured after 48 hrs by fluorescence microscopy; format: functional, organism-based
[4] = tested on: BEAS-2B; test: Induction of apoptosis in human BEAS-2B cells assessed as morphological change in nucleus at 50 to 400 nM incubated for 24 hrs by DAPI staining based analysis; format: toxicity, cell-based; conditions: 0.4 µM, dose 50-400 nM
[5] = Drug accumulation in mitochondria of human NCI-H1975 cells at 600 nM incubated for 5 hrs by Red CMXRos probe based analysis; format: ADME; conditions: nci-h1975, 5 h, 0.6 µM
[6] = Renal toxicity in zebrafish assessed as increase in Kim1 expression at 2 uM treated for 48 hrs by RT-qPCR analysis; design: species or system Danio rerio; conditions: in vivo
[7] = tested on: NCI-H1975; test: Cytotoxicity against human NCI-H1975 cells assessed as inhibition of cell viability incubated for 48 hrs by MTT assay; format: functional, cell-based; conditions: NCI-H1975, 48 h
[8] = tested on: BEAS-2B; test: Induction of apoptosis in human BEAS-2B cells at 50 to 400 nM incubated for 24 hrs by Annexin V-FITC/PI staining based flow cytometry; format: toxicity, cell-based; conditions: 0.4 µM, dose 50-400 nM
[9] = tested on: NCI-H1975; test: Inhibition of mitochondrial membrane potential in human NCI-H1975 cells at 200 nM incubated for 24 hrs by JC-1 staining based flow cytometry; format: functional, cell-based
[10] = tested on: NCI-H1975; test: Inhibition of cell proliferation in human NCI-H1975 cells xenografted in zebrafish at 1 to 2 uM measured after 48 hrs by confocal microscopy; format: functional, cell-based; conditions: dose 1-2 µM
[11] = tested on: NCI-H1975; test: Inhibition of cell viability in human NCI-H1975 cells assessed as effect on cell index at 30 nM by real-time cell analysis; format: functional, cell-based
[12] = Developmental toxicity in zebrafish AB zygotes assessed as decrease in hatching rate at 0.25 to 1 uM treated at 6 hrs post-fertilization measured at 24 to 72 hrs post-fertilization; design: species or system Danio rerio; conditions: in vivo, dose lower 0.25 µM, time lower 18 hrs, dose upper 1 µM, time upper 66 hrs
[13] = Renal toxicity in zebrafish assessed as increase in TNF-alpha expression at 2 uM treated for 48 hrs by RT-qPCR analysis; design: species or system Danio rerio; conditions: in vivo
[14] = Developmental toxicity in zebrafish AB zygotes assessed as decrease in body length treated at 6 hrs post-fertilization measured at 24 to 72 hrs post-fertilization; design: species or system Danio rerio; conditions: in vivo, dose lower 0.25 µM, time lower 18 hrs, dose upper 4 µM, time upper 66 hrs
[15] = Toxicity in zebrafish embryo assessed as liver function at 1 uM with replacement of new growth solution daily by fluorescence microscopy (reference value: 100 +/- 8.89 %); format: tissue-based, Danio rerio; conditions: in vivo
[16] = tested on: NCI-H1975; test: Induction of early apoptosis in human NCI-H1975 cells at 50 to 400 nM incubated for 24 hrs by Annexin V-FITC/PI staining based flow cytometry; format: functional, cell-based; conditions: dose 50-400 nM
[17] = tested on: NCI-H1975; test: Induction of apoptosis in human NCI-H1975 cells at 50 to 400 nM incubated for 24 hrs by Annexin V-FITC/PI staining based flow cytometry; format: functional, cell-based; conditions: dose 50-400 nM
[18] = Toxicity in zebrafish embryo assessed as degree of periocular edema at 4 uM pretreated with compound followed by replacement of growth liquid by microscopy (reference value: 0.00 %); design: species or system Danio rerio; conditions: in vivo, 24 h
[19] = Toxicity in zebrafish embryo assessed as liver function at 2 uM with replacement of new growth solution daily by fluorescence microscopy (reference value: 100 +/- 8.89 %); format: tissue-based, Danio rerio; conditions: in vivo
[20] = Toxicity in zebrafish embryo assessed as liver development at 1 uM with replacement of new growth solution daily by fluorescence microscopy (reference value: 100.00 +/- 8.64 %); format: tissue-based, Danio rerio; conditions: in vivo
[21] = Cytotoxicity against human BEAS-2B cells assessed as inhibition of cell viability incubated for 48 hrs by MTT assay; format: toxicity, cell-based
[22] = Cytotoxicity against human BEAS-2B cells assessed as cell growth inhibition at 4.5 to 10 nM incubated for 48 hrs by MTT assay relative to control; format: toxicity, cell-based; conditions: dose 4.5-10 nM, read-out: Imax
[23] = Renal toxicity in zebrafish assessed as increase in TNF-alpha expression at 0.5 to 2 uM treated for 48 hrs by RT-qPCR analysis; design: species or system Danio rerio; conditions: in vivo, dose 0.5-2 µM
[24] = tested on: NCI-H1975; test: Cytotoxicity against human NCI-H1975 cells assessed as cell growth inhibition at 4.5 to 10 nM incubated for 48 hrs by MTT assay relative to control; format: functional; conditions: dose 4.5-10 nM
[25] = Renal toxicity in fluorescent transgenic zebrafish at 0.5 to 2 uM treated for 48 hrs by fluorescence microscopy; design: species or system Danio rerio; conditions: in vivo, dose 0.5-2 µM
[26] = Toxicity in zebrafish xenografted with human NCI-H1975 cells assessed as body deformity at 1 uM; design: species or system Danio rerio
[27] = tested on: NCI-H1975; test: Cytotoxicity against human NCI-H1975 cells assessed as cell growth inhibition at >41.15 nM incubated for 48 hrs by MTT assay relative to control; format: functional
[28] = Renal toxicity in zebrafish assessed as increase in Kim1 expression at 0.5 to 2 uM treated for 48 hrs by RT-qPCR analysis; design: species or system Danio rerio; conditions: in vivo, dose 0.5-2 µM
[29] = Developmental toxicity in zebrafish AB zygotes assessed as lethal effect at 2 to 4 uM treated at 6 hrs post-fertilization measured at 72 hrs post-fertilization; design: species or system Danio rerio; conditions: in vivo, 66 h, dose 2-4 µM
[30] = tested on: HepG2; test: Cytotoxicity against human HepG2 cells assessed as cell growth inhibition incubated for 48 hrs by MTT assay; format: functional, cell-based; conditions: dose 4.5-10 nM
[31] = tested on: NCI-H460; test: Cytotoxicity against human NCI-H460 cells assessed as cell growth inhibition incubated for 48 hrs by MTT assay; format: functional, cell-based
[32] = Renal toxicity in zebrafish assessed as decrease in nephrin expression at 2 uM treated for 48 hrs by RT-qPCR analysis; design: species or system Danio rerio; conditions: in vivo
[33] = tested on: NCI-H1975; test: Cytotoxicity against human NCI-H1975 cells assessed as cell growth inhibition at 123 nM by MTT assay; format: functional, cell-based; conditions: time 24-70 hrs, TDE = time-dependent effect
[34] = tested on: NCI-H1975; test: Induction of apoptosis in human NCI-H1975 cells at 50 to 1600 nM incubated for 24 hrs by Annexin V-FITC/PI staining based flow cytometry; format: functional, cell-based; conditions: dose 50-1600 nM
[35] = Teratogenic toxicity in zebrafish AB zygotes at 0.5 to 2 uM treated at 6 hrs post-fertilization measured at 24 to 72 hrs post-fertilization; design: species or system Danio rerio; conditions: in vivo, dose lower 0.5 µM, time lower 18 hrs, dose upper 2 µM, time upper 66 hrs
[36] = tested on: BEAS-2B; test: Cytotoxicity against human BEAS-2B cells assessed as cell growth inhibition incubated for 48 hrs by MTT assay; format: toxicity, cell-based
[37] = Developmental toxicity in zebrafish AB zygotes assessed as decrease in hatching rate at 1 to 4 uM treated at 6 hrs post-fertilization measured at 24 to 72 hrs post-fertilization; design: species or system Danio rerio; conditions: in vivo, dose lower 1 µM, time lower 18 hrs, dose upper 4 µM, time upper 66 hrs
[38] = Cytotoxicity against human HUVEC cells assessed as cell growth inhibition at 4.5 to 10 nM incubated for 48 hrs by MTT assay relative to control; format: toxicity, cell-based; conditions: dose 4.5-10 nM, read-out: Imax

CC(C)[C@]12O[C@H]1[C@@H]1O[C@]13[C@]1(O[C@H]1C[C@H]1C4=C(CC[C@@]13C)C(=O)OC4)[C@@H]2OC(=O)CCCCCCCC[n+]1ccc(/C=C/c2c[nH]c3ccccc23)cc1.[Br-]
Activity [1]: Active
Activity [2]: Dose-Dependent Effect
Activity [3]: Active
Activity [4]: Non-Toxic
Drug uptake [5]: Active
Activity [6]: Toxic
IC50 [7]: 0.21 µM
Activity [8]: Non-Toxic
inhibition [9]: Active
inhibition [10]: Active
inhibition [11]: Active
Activity [12]: Non-Toxic
Activity [13]: Toxic
Activity [14]: Dose-Dependent Effect
Activity [15]: 27.18%
Activity [16]: Active
Activity [17]: Active
Activity [18]: 100%
Activity [19]: 20.04%
Activity [20]: 76.24%
IC50 at 48 h [21]: 19.2 µM

CC(C)[C@]12O[C@H]1[C@@H]1O[C@@]13[C@@]1(C)CCC4=C(COC4=O)[C@@H]1C[C@@H]1O[C@@]13C2=O [TRIPTONIDE]
Emax at 48 h [22]: ~40%
Activity [23]: Toxic
Imax [24]: ~40%
Activity [25]: Toxic
Activity [26]: Toxic
inhibition (INH) [27]: <50%
Activity [28]: Toxic
Activity [29]: Toxic
inhibition [30]: Active
inhibition [31]: Dose-Dependent Effect
Activity [32]: Toxic
inhibition [33]: Tde
Activity [34]: Active
Activity [35]: Toxic
inhibition (INH) [36]: Dose-Dependent Effect
Activity [37]: Toxic
Emax at 48 h [38]: ~60%
